Results: ChEMBL document CHEMBL4619816, “GSK973 Is an Inhibitor of the Second Bromodomains (BD2s) of the Bromodomain and Extra-Terminal (BET) Family” (ACS Med Chem Lett, 2020)
Active and inactive are the calls of the source. The calls are words filed in the database; no cut-off is given here.

How the values were obtained:
[1] = target: ATPase family AAA domain-containing protein 2B (Homo sapiens) (UniProt Q9ULI0); test: Inhibition of human partial length ATAD2B (Q955 to R1082 residues) expressed in bacterial expression system by BROMOscan assay
[2] = target: Bromodomain-containing protein 9 (Homo sapiens) (UniProt Q9H8M2); test: Inhibition of human partial length BRD9 (R130 to V259 residues) expressed in bacterial expression system by BROMOscan assay
Chain of Bromodomain-containing protein 9 (Homo sapiens) (Q9H8M2 whole entry, the tested form may be a part): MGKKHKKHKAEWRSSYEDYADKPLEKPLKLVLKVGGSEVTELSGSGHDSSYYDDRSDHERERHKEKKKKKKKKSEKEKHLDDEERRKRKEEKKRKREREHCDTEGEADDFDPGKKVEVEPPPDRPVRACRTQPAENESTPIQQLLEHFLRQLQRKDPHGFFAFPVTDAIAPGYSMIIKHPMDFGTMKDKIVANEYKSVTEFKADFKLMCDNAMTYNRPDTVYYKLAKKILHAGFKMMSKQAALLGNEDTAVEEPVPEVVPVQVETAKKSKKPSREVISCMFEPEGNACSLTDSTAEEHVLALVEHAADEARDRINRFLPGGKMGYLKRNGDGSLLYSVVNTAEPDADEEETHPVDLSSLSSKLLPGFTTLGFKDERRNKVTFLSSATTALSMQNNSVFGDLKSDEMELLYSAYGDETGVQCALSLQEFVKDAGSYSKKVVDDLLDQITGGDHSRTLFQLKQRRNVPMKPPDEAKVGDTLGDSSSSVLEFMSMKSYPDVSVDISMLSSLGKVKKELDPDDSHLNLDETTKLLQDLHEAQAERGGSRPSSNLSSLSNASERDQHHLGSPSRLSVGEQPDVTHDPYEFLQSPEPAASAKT

[3] = target: Histone acetyltransferase p300 (Homo sapiens) (UniProt Q09472); test: Inhibition of human partial length EP300 (A1040 to G1161 residues) expressed in bacterial expression system by BROMOscan assay
[4] = target: Bromodomain adjacent to zinc finger domain protein 2B (Homo sapiens) (UniProt Q9UIF8); test: Inhibition of human partial length BAZ2B (S2054 to S2168 residues) expressed in bacterial expression system by BROMOscan assay
[5] = target: Protein polybromo-1 (Homo sapiens) (UniProt Q86U86); test: Inhibition of human partial length PBRM1 bromodomain 5 (S645 to D766 residues) expressed in bacterial expression system by BROMOscan assay
[6] = Clearance in Beagle dog at 1 mg/kg, iv; type: ADME, organism-based, Canis lupus familiaris; details: in vivo
Peregrin (Homo sapiens) = Peregrin (Homo sapiens) (UniProt P55201); test: Inhibition of human partial length BRPF1 (E627 to G740 residues) expressed in bacterial expression system by BROMOscan assay
[7] = target: Bromodomain-containing protein 8 (Homo sapiens) (UniProt Q9H0E9); test: Inhibition of BRD8 bromodomain 1 (unknown origin) by BROMOscan assay
[8] = target: Bromodomain and WD repeat-containing protein 1 (Homo sapiens) (UniProt Q9NSI6); test: Inhibition of human partial length WDR9 bromodomain 2 (A1310 to E1430 residues) expressed in bacterial expression system by BROMOscan assay
Chain of Bromodomain and WD repeat-containing protein 1 (Homo sapiens) (Q9NSI6 whole entry, the tested form may be a part): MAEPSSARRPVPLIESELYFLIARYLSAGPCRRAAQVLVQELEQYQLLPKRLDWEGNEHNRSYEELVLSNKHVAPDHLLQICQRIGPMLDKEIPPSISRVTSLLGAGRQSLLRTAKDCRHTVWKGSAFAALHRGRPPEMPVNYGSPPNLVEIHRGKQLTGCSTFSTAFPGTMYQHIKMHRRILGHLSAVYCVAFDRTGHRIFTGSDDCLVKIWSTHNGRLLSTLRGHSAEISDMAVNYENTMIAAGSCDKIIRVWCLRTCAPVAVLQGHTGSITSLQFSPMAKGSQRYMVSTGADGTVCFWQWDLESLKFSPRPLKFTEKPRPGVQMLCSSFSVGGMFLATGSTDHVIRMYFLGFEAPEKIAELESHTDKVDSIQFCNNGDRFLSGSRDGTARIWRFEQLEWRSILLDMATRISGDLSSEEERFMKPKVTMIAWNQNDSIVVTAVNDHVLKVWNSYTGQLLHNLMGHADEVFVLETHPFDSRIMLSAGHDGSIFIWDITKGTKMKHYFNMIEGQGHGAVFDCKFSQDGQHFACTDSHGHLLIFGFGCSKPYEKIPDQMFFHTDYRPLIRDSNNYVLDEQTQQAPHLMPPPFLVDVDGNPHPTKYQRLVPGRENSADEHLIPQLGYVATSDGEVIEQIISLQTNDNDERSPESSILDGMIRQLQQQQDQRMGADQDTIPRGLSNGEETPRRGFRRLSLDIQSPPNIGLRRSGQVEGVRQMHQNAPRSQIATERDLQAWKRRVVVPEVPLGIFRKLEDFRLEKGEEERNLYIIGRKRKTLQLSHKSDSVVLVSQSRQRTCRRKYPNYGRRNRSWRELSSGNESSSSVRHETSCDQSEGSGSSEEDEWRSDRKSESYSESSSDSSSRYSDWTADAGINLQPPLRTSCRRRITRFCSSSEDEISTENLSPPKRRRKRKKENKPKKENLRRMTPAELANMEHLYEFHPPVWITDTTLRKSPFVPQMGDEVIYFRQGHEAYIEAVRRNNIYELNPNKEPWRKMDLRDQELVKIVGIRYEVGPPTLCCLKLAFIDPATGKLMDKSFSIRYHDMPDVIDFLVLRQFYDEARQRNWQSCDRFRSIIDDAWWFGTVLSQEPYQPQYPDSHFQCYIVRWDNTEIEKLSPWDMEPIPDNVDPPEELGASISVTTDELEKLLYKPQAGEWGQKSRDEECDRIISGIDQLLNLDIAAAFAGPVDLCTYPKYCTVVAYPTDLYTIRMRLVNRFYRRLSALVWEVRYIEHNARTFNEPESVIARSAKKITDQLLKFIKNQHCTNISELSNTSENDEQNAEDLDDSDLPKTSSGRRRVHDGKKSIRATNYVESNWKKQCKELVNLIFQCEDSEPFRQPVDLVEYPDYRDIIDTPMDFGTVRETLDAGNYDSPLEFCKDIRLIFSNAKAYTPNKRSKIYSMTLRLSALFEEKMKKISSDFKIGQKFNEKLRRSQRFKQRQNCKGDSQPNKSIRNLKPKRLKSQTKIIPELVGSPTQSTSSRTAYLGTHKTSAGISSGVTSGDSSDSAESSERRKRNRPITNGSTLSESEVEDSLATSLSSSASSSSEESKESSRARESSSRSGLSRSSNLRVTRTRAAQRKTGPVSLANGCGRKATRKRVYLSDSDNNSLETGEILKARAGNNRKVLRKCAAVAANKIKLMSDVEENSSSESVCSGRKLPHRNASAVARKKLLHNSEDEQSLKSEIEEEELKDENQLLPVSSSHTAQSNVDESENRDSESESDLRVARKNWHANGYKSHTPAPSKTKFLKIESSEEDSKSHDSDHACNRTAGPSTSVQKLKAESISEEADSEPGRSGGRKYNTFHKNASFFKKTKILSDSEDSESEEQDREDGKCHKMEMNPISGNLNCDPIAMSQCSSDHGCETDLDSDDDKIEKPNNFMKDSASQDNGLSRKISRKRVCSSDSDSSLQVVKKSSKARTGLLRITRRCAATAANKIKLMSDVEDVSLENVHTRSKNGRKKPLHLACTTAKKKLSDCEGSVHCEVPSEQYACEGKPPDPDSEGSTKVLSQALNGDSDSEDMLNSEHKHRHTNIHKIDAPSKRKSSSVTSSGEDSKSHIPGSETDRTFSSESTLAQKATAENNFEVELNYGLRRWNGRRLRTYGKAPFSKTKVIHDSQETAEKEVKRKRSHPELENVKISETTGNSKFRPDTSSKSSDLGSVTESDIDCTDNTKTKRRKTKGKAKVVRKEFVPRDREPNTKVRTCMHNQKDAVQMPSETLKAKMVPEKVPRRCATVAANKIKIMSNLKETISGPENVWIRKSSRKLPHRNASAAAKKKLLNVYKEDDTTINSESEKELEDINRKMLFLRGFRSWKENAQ

[9] = Half life in Wistar Han rat at 1 mg/kg administered as iv infusion for 1 hr and measured up to 24 hrs by LC-MS/MS analysis; type: ADME, organism-based; details: in vivo
[10] = Clearance in Beagle dog hepatocytes assessed as per gram tissue at 0.5 uM by LC-MS/MS analysis; type: ADME, cell-based, Canis lupus familiaris, Hepatocyte
[11] = target: Histone acetyltransferase KAT2B (Homo sapiens) (UniProt Q92831); test: Inhibition of human partial length PCAF (G715 to D831 residues) expressed in bacterial expression system by BROMOscan assay
[12] = target: Chromatin remodeling regulator CECR2 (Homo sapiens) (UniProt Q9BXF3); test: Inhibition of human partial length CECR2 (P423 to D543 residues) expressed in bacterial expression system by BROMOscan assay
Chain of Chromatin remodeling regulator CECR2 (Homo sapiens) (Q9BXF3 whole entry, looked up, the tested form may be a part): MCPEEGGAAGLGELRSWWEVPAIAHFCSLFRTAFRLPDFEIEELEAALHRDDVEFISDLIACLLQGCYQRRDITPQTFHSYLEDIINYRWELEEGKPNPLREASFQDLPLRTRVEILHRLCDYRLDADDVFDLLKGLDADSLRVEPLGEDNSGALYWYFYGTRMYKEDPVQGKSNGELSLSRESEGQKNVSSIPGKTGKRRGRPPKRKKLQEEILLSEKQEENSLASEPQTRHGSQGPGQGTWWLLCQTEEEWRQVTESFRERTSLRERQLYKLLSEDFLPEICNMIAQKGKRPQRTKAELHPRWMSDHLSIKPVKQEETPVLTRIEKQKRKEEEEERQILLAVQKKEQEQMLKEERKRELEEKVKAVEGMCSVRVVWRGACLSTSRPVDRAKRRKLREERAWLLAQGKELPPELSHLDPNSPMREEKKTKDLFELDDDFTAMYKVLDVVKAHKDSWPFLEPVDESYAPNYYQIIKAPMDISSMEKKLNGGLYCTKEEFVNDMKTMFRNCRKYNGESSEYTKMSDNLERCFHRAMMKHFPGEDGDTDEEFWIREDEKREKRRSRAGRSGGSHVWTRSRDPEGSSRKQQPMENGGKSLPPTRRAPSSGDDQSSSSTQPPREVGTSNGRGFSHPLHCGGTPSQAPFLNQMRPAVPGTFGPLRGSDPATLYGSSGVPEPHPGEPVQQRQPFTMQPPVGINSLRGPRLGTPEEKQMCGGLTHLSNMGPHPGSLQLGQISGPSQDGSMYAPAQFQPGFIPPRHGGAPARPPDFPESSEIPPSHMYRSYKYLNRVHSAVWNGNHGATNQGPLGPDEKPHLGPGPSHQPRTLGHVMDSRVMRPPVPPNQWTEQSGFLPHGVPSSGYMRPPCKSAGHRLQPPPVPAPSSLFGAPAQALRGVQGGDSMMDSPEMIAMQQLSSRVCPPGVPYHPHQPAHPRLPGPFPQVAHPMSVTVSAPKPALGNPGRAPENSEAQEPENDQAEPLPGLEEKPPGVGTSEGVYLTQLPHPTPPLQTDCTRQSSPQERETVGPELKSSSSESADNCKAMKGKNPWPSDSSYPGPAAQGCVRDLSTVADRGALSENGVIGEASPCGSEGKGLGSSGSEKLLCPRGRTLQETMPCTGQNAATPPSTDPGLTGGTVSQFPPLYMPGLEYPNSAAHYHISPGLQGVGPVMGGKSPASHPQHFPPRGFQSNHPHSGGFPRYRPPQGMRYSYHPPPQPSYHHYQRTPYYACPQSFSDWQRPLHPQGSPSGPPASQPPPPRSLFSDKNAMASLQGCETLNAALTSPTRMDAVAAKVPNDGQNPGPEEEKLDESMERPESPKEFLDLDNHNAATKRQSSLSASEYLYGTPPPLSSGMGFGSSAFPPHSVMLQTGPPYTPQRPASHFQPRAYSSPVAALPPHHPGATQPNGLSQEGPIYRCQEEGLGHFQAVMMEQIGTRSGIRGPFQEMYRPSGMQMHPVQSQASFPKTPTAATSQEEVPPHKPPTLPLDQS

[13] = target: Bromodomain testis-specific protein (Homo sapiens) (UniProt Q58F21); test: Inhibition of BRDT bromodomain 1/2 (unknown origin) by BROMOscan assay

- inhibition [1]: inactive
- inhibition [2]: inactive
- inhibition [3]: inactive
- inhibition [4]: inactive
- inhibition [5]: inactive
- clearance [6]: 3 mL/min/kg
- inhibition (Peregrin (Homo sapiens)): inactive
- inhibition [7]: inactive
- inhibition [8]: inactive
- half-life [9]: 36 min
- CLH [10]: < 0.65 mL/min/g
- inhibition [11]: inactive
- inhibition [12]: inactive
- inhibition [13]: inactive
Compound: CNC(=O)c1cc(C(=O)N[C@@H]2[C@@H]3COC[C@@H]32)cc2c1O[C@H](CF)[C@H]2c1ccccc1
